In US5759565A, “Galenic compositions comprising calcitonin and their use” (Novartis Corporation, priority 1982, dated 1998):

Columns and labels:
[1] = tested on: ciliary beating frequency of rat trachea; experiment: Ciliary beating frequency, microphoto-oscillographic method of L. Chevance et al; assay type: cell-based; conditions: at 0.6%; within 20 minutes
Procedure: 70, […] (1970). These are just some of the disadvantageous effects that can be encountered.
Moreover the compositions are well tolerated as indicated in standard tests, e.g. in that less than 50% inhibition of ciliary beating frequency is observed up to 20 minutes after administration, according to the microphoto-oscillographic method of L. Chevance et al, Acta Otolaryng. 70, 26-28 (1970).

[2] = Relative bio-availability study: nasal administration/intra-muscular injection of salmon calcitonin, serum level by radio-immuno-assay; assay type: in vivo, human (healthy volunteers)
Procedure: The study is conducted with 12 healthy volunteers, 6 male and 6 female, with a body weight of from 50 to 85 kg. Each subject receives 4 administrations of salmon calcitonin, one intra-muscularly and 3 nasally. Administration is effected at the following dosages:
Nasal administration is effected using composition in accordance with example 1 and a spray-applicator delivering 55 MRC units per individual spray dosage. For the purposes of administration the subject is laid on the back with the head tilted backwards for 5 minutes. The nostrils are cleaned by blowing of the nose immediately prior to administration.
Intra-muscular administration is effected by injection of a single 1 ml dose of a composition similar to that of example 1, but omitting benzalkonium chloride and containing 50 MRC units into the glutaeus medius muscle.
Each subject receives the 4 administrations in randomized sequence, and at least 3 days are allowed between consecutive administrations. Each administration is effected in the morning after a light breakfast from which milk, butter and cheese is excluded. 100 ml water or orange juice is taken hourly following treatment to maintain urinary output. Further food is allowed not earlier than 4 hours after treatment.
Blood samples are taken immediately prior to administration (control), and at intervals of 5, 15, 30, 60, 90, 120, 180, 240, 360 and 480 minutes following administration. For the control a 20 ml sample is taken. All subsequent samples are 2 ml samples.
The concentration of salmon calcitonin in each serum sample is measured by radio-immuno-assay. Blood-pressure is controlled during the course of the trial and urine-samples tested for possible adverse reaction. Occurrence of side-effects, e.g. symptoms of nausea, is noted.
The AUC ("area under curve") for salmon calcitonin plasma concentration is calculated statistically, once employing all value, including those below the 26 pg/ml detectability limit, once with values below the detectability limit read as zero. Maximal plasma concentration and time at which this is reached are also determined. […]

| Structure (SMILES) | inhibition of the ciliary beating frequency of rat trachea [1] | AUC of serum concentration compared with 50 MRC units i.m. ([2]; 110 MRC units intra-nasally) | AUC of serum concentration compared with 50 MRC units i.m. ([2]; 220 MRC units intra-nasally) | adverse side-effects ([2]; nasal administrations, up to the highest dosage of 220 MRC units) |
| --- | --- | --- | --- | --- |
| CC(C)(O)C(Cl)(Cl)Cl [chlorbutanol] | more than 50% |  |  |  |
| CC(C)C[C@H](NC(=O)[C@H](CCCCN)NC(=O)CNC(=O)[C@H](CC(C)C)NC(=O)[C@@H](NC(=O)[C@@H]1CSSC[C@H](N)C(=O)N[C@@H](CO)C(=O)N[C@@H](CC(N)=O)C(=O)N[C@@H](CC(C)C)C(=O)N[C@@H](CO)C(=O)N[C@@H]([C@@H](C)O)C(=O)N1)C(C)C)C(=O)N[C@@H](CO)C(=O)N[C@@H](CCC(N)=O)C(=O)N[C@@H](CCC(=O)O)C(=O)N[C@@H](CC(C)C)C(=O)N[C@@H](Cc1c[nH]cn1)C(=O)N[C@@H](CCCCN)C(=O)N[C@@H](CC(C)C)C(=O)N[C@@H](CCC(N)=O)C(=O)N[C@H](C(=O)N[C@@H](Cc1ccc(O)cc1)C(=O)N1CCC[C@H]1C(=O)N[C@@H](CCCNC(=N)N)C(=O)N[C@H](C(=O)N[C@@H](CC(N)=O)C(=O)N[C@H](C(=O)NCC(=O)N[C@@H](CO)C(=O)NCC(=O)N[C@H](C(=O)N1CCC[C@H]1C(N)=O)[C@@H](C)O)[C@@H](C)O)[C@@H](C)O)[C@@H](C)O [salmon calcitonin] |  | comparable | comparable | No adverse side-effects were recorded |
